We go through 1 compound from article PMC6267282, “Targeting the DNA Repair Endonuclease ERCC1-XPF with Green Tea Polyphenol Epigallocatechin-3-Gallate (EGCG) and Its Prodrug to Enhance Cisplatin Efficacy in Human Cancer Cells” (Nutrients, 2018).

Usually IC50 stands for the concentration that gives 50% inhibition. Read a high IC50 as a need for much substance.

The test addresses T1, ERCC1/XPF (XPF endonuclease) (Homo sapiens, UniProt Q92889).
T1 construct: gene ERCC4; with ERCC1
Nature of the test: fluorescence-based DNA incision assay with purified ERCC1/XPF. Format: biochemical.

T1 sequence (Q92889 whole entry): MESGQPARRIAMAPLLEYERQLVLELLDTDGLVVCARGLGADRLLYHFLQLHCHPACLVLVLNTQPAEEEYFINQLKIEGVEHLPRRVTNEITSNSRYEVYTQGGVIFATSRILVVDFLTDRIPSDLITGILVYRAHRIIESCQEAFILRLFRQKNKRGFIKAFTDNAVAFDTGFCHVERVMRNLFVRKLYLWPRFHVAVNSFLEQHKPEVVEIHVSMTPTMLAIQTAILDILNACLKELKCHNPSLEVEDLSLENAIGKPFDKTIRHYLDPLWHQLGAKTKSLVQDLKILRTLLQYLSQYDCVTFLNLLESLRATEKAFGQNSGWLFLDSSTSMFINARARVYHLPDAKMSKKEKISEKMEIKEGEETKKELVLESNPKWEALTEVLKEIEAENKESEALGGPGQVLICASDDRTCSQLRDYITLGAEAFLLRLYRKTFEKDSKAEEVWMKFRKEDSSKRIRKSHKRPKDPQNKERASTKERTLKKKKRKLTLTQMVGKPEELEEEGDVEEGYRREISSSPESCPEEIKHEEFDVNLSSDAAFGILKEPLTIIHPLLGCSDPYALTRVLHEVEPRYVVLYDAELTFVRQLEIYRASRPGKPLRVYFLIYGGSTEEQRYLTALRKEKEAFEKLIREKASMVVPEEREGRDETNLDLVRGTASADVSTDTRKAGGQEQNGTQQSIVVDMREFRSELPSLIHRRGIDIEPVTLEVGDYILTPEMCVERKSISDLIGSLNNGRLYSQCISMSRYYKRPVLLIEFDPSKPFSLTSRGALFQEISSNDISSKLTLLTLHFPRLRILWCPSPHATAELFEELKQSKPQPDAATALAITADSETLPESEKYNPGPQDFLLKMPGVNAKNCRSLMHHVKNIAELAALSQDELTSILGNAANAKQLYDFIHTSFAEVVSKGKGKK
T1 sequence (P07992 whole entry, further chain): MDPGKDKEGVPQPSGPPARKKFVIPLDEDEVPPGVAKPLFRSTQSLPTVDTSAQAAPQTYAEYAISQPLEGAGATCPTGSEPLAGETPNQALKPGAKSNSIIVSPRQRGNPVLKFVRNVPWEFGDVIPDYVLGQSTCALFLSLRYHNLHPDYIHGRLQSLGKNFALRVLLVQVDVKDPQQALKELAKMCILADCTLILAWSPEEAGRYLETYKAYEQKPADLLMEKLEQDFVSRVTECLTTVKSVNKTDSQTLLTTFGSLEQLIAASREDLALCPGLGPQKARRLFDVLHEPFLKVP

`O=c1c(O)c(-c2cc(O)c(O)c(O)c2)oc2cc(O)cc(O)c12` [Myricetin]: the IC50 is approximately 150 nM.
